Key:
Format in all cases: functional
[1] = test system: SR; test: Growth inhibition of human SR cells assessed as cell growth at 10^-5 M incubated for 48 hrs by sulforhodamine B assay relative to control; details: read-out: Activity
[2] = test system: KM12; test: Growth inhibition of human KM12 cells assessed as cell growth at 10^-6 M incubated for 48 hrs by sulforhodamine B assay relative to control; details: KM12, 48 h, read-out: Activity
[3] = test system: A498; test: Growth inhibition of human A498 cells assessed as cell growth at 10^-7 M incubated for 48 hrs by sulforhodamine B assay relative to control; details: A498, 48 h, read-out: Activity
[4] = test system: MDA-MB-468; test: Cytotoxicity against human MDA-MB-468 cells after 48 hrs by SRB assay; details: MDA-MB-468, 48 h; for GI50: read-out: GI50; for TGI: read-out: TGI
[5] = test system: NCI-H23; test: Cytotoxicity against human NCI-H23 cells after 48 hrs by SRB assay; details: NCI-H23, 48 h; for GI50: read-out: GI50; for TGI: read-out: TGI
[6] = test system: UACC-62; test: Growth inhibition of human UACC62 cells assessed as cell growth at 10^-5 M incubated for 48 hrs by sulforhodamine B assay relative to control; details: UACC-62, 48 h, read-out: Activity
[7] = test system: DU-145; test: Growth inhibition of human DU145 cells assessed as cell growth at 10^-8 M incubated for 48 hrs by sulforhodamine B assay relative to control; details: DU-145, 48 h, read-out: Activity
[8] = test system: HT-29; test: Growth inhibition of human HT-29 cells assessed as cell growth at 10^-4 M incubated for 48 hrs by sulforhodamine B assay relative to control; details: HT-29, 48 h, read-out: Activity
[9] = test system: HCT-15; test: Growth inhibition of human HCT15 cells assessed as cell growth at 10^-8 M incubated for 48 hrs by sulforhodamine B assay relative to control; details: HCT-15, 48 h, read-out: Activity
[10] = test system: SW-620; test: Cytotoxicity against human SW620 cells after 48 hrs by SRB assay; details: SW-620, 48 h; for GI50: read-out: GI50
[11] = test system: NCI-H226; test: Growth inhibition of human NCI-H226 cells assessed as cell growth at 10^-8 M incubated for 48 hrs by sulforhodamine B assay relative to control; details: NCI-H226, 48 h, read-out: Activity
[12] = test system: MDA-MB-468; test: Growth inhibition of human MDA-MB-468 cells assessed as cell growth at 10^-7 M incubated for 48 hrs by sulforhodamine B assay relative to control; details: MDA-MB-468, 48 h, read-out: Activity
[13] = test system: HOP-92; test: Cytotoxicity against human HOP92 cells after 48 hrs by SRB assay; details: HOP-92, 48 h; for GI50: read-out: GI50; for CC50: read-out: LC50 (the source's name); for TGI: read-out: TGI
[14] = test system: SN12C; test: Cytotoxicity against human SN12C cells after 48 hrs by SRB assay; details: for GI50: read-out: GI50
[15] = test system: UACC-62; test: Growth inhibition of human UACC62 cells assessed as cell growth at 10^-7 M incubated for 48 hrs by sulforhodamine B assay relative to control; details: UACC-62, 48 h, read-out: Activity
[16] = test system: MDA-MB-435; test: Growth inhibition of human MDA-MB-435 cells assessed as cell growth at 10^-6 M incubated for 48 hrs by sulforhodamine B assay relative to control; details: MDA-MB-435, 48 h, read-out: Activity
[17] = test system: SNB-19; test: Growth inhibition of human SNB19 cells assessed as cell growth at 10^-6 M incubated for 48 hrs by sulforhodamine B assay relative to control; details: SNB-19, 48 h, read-out: Activity
[18] = test system: HCT-116; test: Growth inhibition of human HCT116 cells assessed as cell growth at 10^-6 M incubated for 48 hrs by sulforhodamine B assay relative to control; details: HCT-116, 48 h, read-out: Activity
[19] = test system: SF-268; test: Cytotoxicity against human SF268 cells after 48 hrs by SRB assay; details: SF-268, 48 h; for GI50: read-out: GI50; for CC50: read-out: LC50 (the source's name); for TGI: read-out: TGI
[20] = test system: MDA-MB-435; test: Cytotoxicity against human MDA-MB-435 cells after 48 hrs by SRB assay; details: MDA-MB-435, 48 h; for GI50: read-out: GI50; for TGI: read-out: TGI
[21] = test system: OVCAR-4; test: Growth inhibition of human OVCAR4 cells assessed as cell growth at 10^-4 M incubated for 48 hrs by sulforhodamine B assay relative to control; details: OVCAR-4, 48 h, read-out: Activity
[22] = test system: KM12; test: Growth inhibition of human KM12 cells assessed as cell growth at 10^-7 M incubated for 48 hrs by sulforhodamine B assay relative to control; details: KM12, 48 h, read-out: Activity
[23] = test system: NCI-H522; test: Growth inhibition of human NCI-H522 cells assessed as cell growth at 10^-8 M incubated for 48 hrs by sulforhodamine B assay relative to control; details: NCI-H522, 48 h, read-out: Activity
[24] = test system: 786-0; test: Growth inhibition of human 786-0 cells assessed as cell growth at 10^-7 M incubated for 48 hrs by sulforhodamine B assay relative to control; details: 786-0, 48 h, read-out: Activity
[25] = test system: SK-MEL-28; test: Growth inhibition of human SK-MEL-28 cells assessed as cell growth at 10^-5 M incubated for 48 hrs by sulforhodamine B assay relative to control; details: SK-MEL-28, 48 h, read-out: Activity
[26] = test system: SF-268; test: Growth inhibition of human SF268 cells assessed as cell growth at 10^-6 M incubated for 48 hrs by sulforhodamine B assay relative to control; details: SF-268, 48 h, read-out: Activity
[27] = test system: PC-3; test: Growth inhibition of human PC3 cells assessed as cell growth at 10^-7 M incubated for 48 hrs by sulforhodamine B assay relative to control; details: PC-3, 48 h, read-out: Activity
[28] = test system: PC-3; test: Growth inhibition of human PC3 cells assessed as cell growth at 10^-4 M incubated for 48 hrs by sulforhodamine B assay relative to control; details: PC-3, 48 h, read-out: Activity
[29] = test system: SR; test: Growth inhibition of human SR cells assessed as cell growth at 10^-4 M incubated for 48 hrs by sulforhodamine B assay relative to control; details: read-out: Activity
[30] = test system: NCI-H226; test: Cytotoxicity against human NCI-H226 cells after 48 hrs by SRB assay; details: NCI-H226, 48 h; for GI50: read-out: GI50
[31] = test system: RXF 393; test: Growth inhibition of human RXF393 cells assessed as cell growth at 10^-6 M incubated for 48 hrs by sulforhodamine B assay relative to control; details: RXF 393, 48 h, read-out: Activity
[32] = test system: U-251; test: Growth inhibition of human U251 cells assessed as cell growth at 10^-6 M incubated for 48 hrs by sulforhodamine B assay relative to control; details: U-251, 48 h, read-out: Activity
[33] = read-out: pLC50 (the source's name) (converted)
[34] = read-out: LC50 (the source's name)

C#C[C@@]1(O)[C@@H](CO)O[C@@H](n2cc(Br)c3c(N)ncnc32)[C@@H]1O
growth at 10 µM [1]: 1 to 5%
growth at 1 µM [2]: 21 to 26%
growth at 0.1 µM [3]: 88 to 98%
GI50 [4]: 0.115 to 0.219 µM
TGI [4]: 0.352 to 0.637 µM
CC50 [4, 33]: 1.91 µM
GI50 [5]: 0.162 to 0.225 µM
TGI [5]: 1.93 to 4.21 µM
CC50 [5, 33]: > 100 µM
growth at 10 µM [6]: 4 to 8%
growth at 0.01 µM [7]: 98 to 100%
growth at 100 µM [8]: 1 to 2%
growth at 0.01 µM [9]: 80 to 84%
GI50 [10]: 0.0312 to 0.076 µM
CC50 [10, 34]: > 100 µM
TGI ([10]; read-out: TGI): > 100 µM
TGI ([10]; read-out: pTGI (converted)): > 100 µM
growth at 0.01 µM [11]: 96 to 98%
growth at 0.1 µM [12]: 56 to 87%
GI50 [13]: 0.149 to 0.318 µM
CC50 [13]: > 100 µM
TGI [13]: 0.686 to 3.13 µM
GI50 [14]: 0.0377 to 0.218 µM
CC50 [14, 34]: > 100 µM
TGI ([14]; read-out: TGI): > 100 µM
TGI ([14]; read-out: pTGI (converted)): > 100 µM
growth at 0.1 µM [15]: 56 to 84%
growth at 1 µM [16]: 15 to 28%
growth at 1 µM [17]: 6%
growth at 1 µM [18]: 2 to 3%
GI50 [19]: 0.467 to 0.498 µM
CC50 [19]: > 100 µM
TGI [19]: 33.2 to 80.6 µM
GI50 [20]: 0.105 to 0.294 µM
TGI [20]: 5.36 to 19.7 µM
CC50 [20, 33]: > 100 µM
growth at 100 µM [21]: 3 to 15%
growth at 0.1 µM [22]: 49 to 53%
growth at 0.01 µM [23]: 89 to 95%
growth at 0.1 µM [24]: 69 to 88%
growth at 10 µM [25]: 38 to 40%
growth at 1 µM [26]: 34 to 36%
growth at 0.1 µM [27]: 33 to 61%
growth at 100 µM [28]: -5%
growth at 100 µM [29]: 2 to 6%
GI50 [30]: 0.373 to 4.42 µM
TGI ([30]; read-out: TGI): 6.37 to 100 µM
CC50 [30, 33]: > 100 µM

C#C[C@@]1(O)[C@@H](CO)O[C@@H](n2cc(I)c3c(N)ncnc32)[C@@H]1O
growth at 1 µM [2]: 25 to 27%
growth at 0.1 µM [3]: 74 to 89%
GI50 [4]: 0.147 to 0.158 µM
CC50 [4, 34]: 5.51 to 5.65 µM
TGI [4]: 0.421 to 0.746 µM
GI50 [5]: 0.271 to 0.395 µM
CC50 [5, 34]: > 100 µM
TGI [5]: 4.31 to 9.72 µM
growth at 0.01 µM [7]: 91 to 94%
growth at 0.01 µM [9]: 74 to 84%
GI50 [10]: 0.0572 to 0.059 µM
TGI ([10]; read-out: TGI): > 100 µM
CC50 [10, 33]: > 100 µM
TGI ([10]; read-out: pTGI (converted)): > 100 µM
growth at 0.01 µM [11]: 84 to 97%
growth at 0.1 µM [12]: 65 to 68%
GI50 [13]: 0.025 to 0.217 µM
CC50 [13]: > 100 µM
TGI [13]: 0.991 to 4.98 µM
GI50 [14]: 0.069 to 0.138 µM
TGI ([14]; read-out: TGI): > 100 µM
CC50 [14, 33]: > 100 µM
TGI ([14]; read-out: pTGI (converted)): > 100 µM
growth at 0.1 µM [15]: 81 to 84%
growth at 1 µM [16]: 34 to 46%
growth at 1 µM [17]: 8 to 26%
growth at 1 µM [18]: 5 to 6%
GI50 [19]: 0.941 to 1.28 µM
CC50 [19]: > 100 µM
TGI [19]: 32.2 to 77.3 µM
GI50 [20]: 0.32 to 0.699 µM
CC50 [20, 34]: > 100 µM
TGI [20]: 11.7 to 14 µM
growth at 100 µM [21]: 9 to 14%
growth at 0.1 µM [22]: 49 to 50%
growth at 1 µM [31]: 26 to 34%
growth at 0.01 µM [23]: 83 to 85%
growth at 0.1 µM [24]: 72 to 79%
growth at 1 µM [32]: 6 to 9%
growth at 1 µM [26]: 49 to 55%
growth at 0.1 µM [27]: 43 to 48%
GI50 [30]: 1.35 to 2.18 µM
CC50 [30, 34]: > 100 µM
TGI ([30]; read-out: TGI): > 100 µM
TGI ([30]; read-out: pTGI (converted)): > 100 µM

Reference: ChEMBL document CHEMBL4270599, “Synthesis of a 3'-C-ethynyl-β-d-ribofuranose purine nucleoside library: Discovery of C7-deazapurine analogs as potent antiproliferative nucleosides” (Eur J Med Chem, 2018)
